Patent US4419517A, “4a-Aryl-trans-decahydroisoquinolines” (E. I. Du Pont de Nemours & Co., priority 1975, dated 1983)

Columns and labels:
[1] = system: phenylquinone-induced stretching or writhing syndrome; assay: Phenylquinone writhing test, oral, female white mice (modified from Siegmund et al.); assay type: in vivo; details: for ED50: Mus musculus, po, suspended in 1% Methocel, fasted female white mice, phenylquinone i.p. 23 or 30 min later, observed 10 min, moving average method, read-out: oral ED50 (effective analgesic dose for 50% of the mice); for analgesic activity of the optical isomers, in words: dextro and laevo forms; for ED50 (optical isomers, phenylquinone writhing test described in Example A): optical isomers of N-methyl-4a-phenyl-trans-decahydroisoquinoline, mice, test as in Example A
Experimental: In a standard mouse test modified from Siegmund et al. [Proc. Soc. Exp. Biol. Med. 95, 729 (1957)], a test compound suspended in 1% Methocel® was given orally to fasted (17-21 hours) female white mice, 5-20 animals per double blind test. Aqueous (0.01%) phenyl-p-benzoquinone (phenylquinone) was injected intraperitoneally at 23 or 30 minutes later using 0.25 ml per mouse. […] The effective analgesic dose for 50% of the mice (ED50) was calculated by the moving average method of Weil [Biometrics 8, 249 (1952)].The oral ED50 dosages of several compounds of the invention are: […]

[2] = system: Straub tail; assay: Straub tail in mice; assay type: in vivo; details: dose not stated
Text: Included in this group are the compounds of examples 9, 10, 16 and 18.

[3] = J. Am. Chem. Soc. 72, 712 (1950); cited from earlier work

Compound | ED50 [1] [mg/kg] | Straub tail in mice (evidence for appearing to be nonaddicting) [2] | further results
COc1cccc([C@@]23CCCC[C@H]2CN(C)CC3)c1 (relative stereo) [Example 3-E, N-Methyl-4a-(m-methoxyphenyl)-trans-decahydroisoquinoline] | 3 |  | 
CN1CC[C@]2(c3cccc(O)c3)CCCC[C@H]2C1 (relative stereo) [Example 4, N-methyl-4a-(m-hydroxyphenyl)-trans-decahydroisoquinoline] | 2.3 |  | 
COc1cccc([C@@]23CCCC[C@H]2CN(CC2CC2)CC3)c1 (relative stereo) [Example 9, N-Cyclopropylmethyl-4a-(m-methoxyphenyl)-trans-decahydroisoquinoline] | 8 | do not produce the Straub tail | 
Oc1cccc([C@@]23CCCC[C@H]2CN(CC2CC2)CC3)c1 (relative stereo) [Example 10, N-Cyclopropylmethyl-4a-(m-hydroxyphenyl)-trans-decahydroisoquinoline] |  | do not produce the Straub tail | 
CN1CC[C@@]2(c3ccccc3)CCCC[C@@H]2C1 (relative stereo) [Laevo (Ex. 2H-1), laevo-N-Methyl-4a-phenyl-trans-decahydroisoquinoline] |  |  | analgesic activity of the optical isomers, in words ([1]; phenylquinone writhing test): active; ED50 (optical isomers, phenylquinone writhing test described in Example A) [1]: 23.0 mg/kg
CCCCCCN1CC[C@]2(c3cccc(O)c3)CCCC[C@H]2C1 (relative stereo) [Example 16, N-(n-Hexyl)-4a-(m-hydroxyphenyl)-trans-decahydroisoquinoline] |  | do not produce the Straub tail | 
CN1CC[C@@]2(c3ccccc3)CCCC[C@@H]2C1 (relative stereo) [Dextro (Ex. 2H-2), dextro-N-Methyl-4a-phenyl-trans-decahydroisoquinoline] |  |  | analgesic activity of the optical isomers, in words ([1]; phenylquinone writhing test): active; analgesic effectiveness of dextro form compared with laevo form ([1]; dextro vs laevo form, phenylquinone writhing test): significantly more effective than the laevo form; ED50 (optical isomers, phenylquinone writhing test described in Example A) [1]: 3.5 mg/kg
CN1CC[C@]2(c3ccccc3)CCCC[C@@H]2C1 (relative stereo) [N-methyl-4a-phenyl-cis-decahydroisoquinoline] |  |  | analgesic activity [3]: low analgesic activity
COc1cccc(C23CCN(CC4CC4)CC2CCC(C)C3)c1 (stereo not drawn) [Example 18, N-cyclopropylmethyl-4a-(m-methoxyphenyl)-6-methyl-trans-decahydroisoquinoline] |  | do not produce the Straub tail | 
